# ChEMBL document CHEMBL1201862, “PubChem BioAssay data set” (2004)
# Activity calls are given as the source filed them.
# Key:
# [1] = target: T1, Microphthalmia-associated transcription factor (Homo sapiens, UniProt O75030); assay: reducers of TRPM1 reporter luminescence, concentration series – cell-based, SK-MEL-5, cherry-picked, set 3, MITF inhibitor project, dose response (AID 493073); assay type: functional;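 also: SK-MEL-5 melanoma cells with luciferase driven by the MITF target TRPM1 promoter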
# T1 sequence (O75030 whole entry): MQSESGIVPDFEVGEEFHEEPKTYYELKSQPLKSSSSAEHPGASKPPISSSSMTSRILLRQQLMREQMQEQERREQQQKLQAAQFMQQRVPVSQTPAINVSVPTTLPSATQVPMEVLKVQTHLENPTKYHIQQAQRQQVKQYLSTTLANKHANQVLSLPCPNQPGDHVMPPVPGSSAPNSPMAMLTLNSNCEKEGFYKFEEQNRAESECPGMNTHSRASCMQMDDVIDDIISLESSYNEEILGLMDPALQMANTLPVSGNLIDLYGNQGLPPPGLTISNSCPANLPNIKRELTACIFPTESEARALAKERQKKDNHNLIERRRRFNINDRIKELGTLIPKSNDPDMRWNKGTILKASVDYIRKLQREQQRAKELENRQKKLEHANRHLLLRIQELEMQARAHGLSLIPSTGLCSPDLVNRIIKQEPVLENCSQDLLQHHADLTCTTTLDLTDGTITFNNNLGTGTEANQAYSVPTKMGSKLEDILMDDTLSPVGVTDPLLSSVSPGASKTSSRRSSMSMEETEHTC
# [2] = target: T2, Apoptotic protease-activating factor 1 (Homo sapiens, UniProt O14727); assay type: functional
# T2 sequence (O14727 whole entry): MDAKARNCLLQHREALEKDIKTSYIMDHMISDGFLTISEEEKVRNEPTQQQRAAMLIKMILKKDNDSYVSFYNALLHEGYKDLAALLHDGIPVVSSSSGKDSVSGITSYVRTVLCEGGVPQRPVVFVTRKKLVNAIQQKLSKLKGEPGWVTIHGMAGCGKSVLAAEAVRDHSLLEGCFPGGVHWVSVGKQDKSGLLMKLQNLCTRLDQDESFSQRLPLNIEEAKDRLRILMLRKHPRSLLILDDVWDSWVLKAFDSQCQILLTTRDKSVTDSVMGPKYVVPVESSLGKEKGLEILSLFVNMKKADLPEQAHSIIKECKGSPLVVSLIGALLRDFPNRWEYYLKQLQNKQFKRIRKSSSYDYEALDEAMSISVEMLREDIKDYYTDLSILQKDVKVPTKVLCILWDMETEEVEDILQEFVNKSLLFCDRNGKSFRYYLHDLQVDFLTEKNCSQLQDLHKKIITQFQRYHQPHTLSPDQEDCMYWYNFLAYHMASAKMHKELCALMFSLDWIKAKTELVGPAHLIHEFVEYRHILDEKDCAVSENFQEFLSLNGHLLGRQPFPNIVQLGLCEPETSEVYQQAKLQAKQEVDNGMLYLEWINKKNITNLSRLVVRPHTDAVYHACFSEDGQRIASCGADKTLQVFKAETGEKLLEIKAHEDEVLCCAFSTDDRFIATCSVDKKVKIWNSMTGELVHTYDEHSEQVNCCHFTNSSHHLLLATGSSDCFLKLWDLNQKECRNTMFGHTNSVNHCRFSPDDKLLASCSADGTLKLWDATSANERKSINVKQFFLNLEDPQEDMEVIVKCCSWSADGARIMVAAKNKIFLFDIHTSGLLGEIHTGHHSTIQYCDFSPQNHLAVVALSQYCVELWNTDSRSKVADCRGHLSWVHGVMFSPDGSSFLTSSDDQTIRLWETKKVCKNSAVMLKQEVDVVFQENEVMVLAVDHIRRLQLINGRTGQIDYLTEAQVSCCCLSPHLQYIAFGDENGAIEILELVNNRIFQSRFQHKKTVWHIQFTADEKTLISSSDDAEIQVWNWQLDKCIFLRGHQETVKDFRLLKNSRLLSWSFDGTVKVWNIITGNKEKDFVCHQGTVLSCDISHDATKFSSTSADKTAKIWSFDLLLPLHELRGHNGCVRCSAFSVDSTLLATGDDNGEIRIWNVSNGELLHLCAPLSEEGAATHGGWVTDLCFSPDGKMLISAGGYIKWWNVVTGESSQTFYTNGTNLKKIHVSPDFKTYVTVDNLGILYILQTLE
# [3] = cytotoxicity in MITF-independent A375 cells – cell-based, CellTiter-Glo luminescence, dry powder, set 4, counter-screen for MITF inhibitor project, dose response (AID 624364); assay type: functional; conditions: A-375;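 also: A375 melanoma cells are MITF independent so this is a counter screen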
# [4] = viability loss in MITF-independent A375 cells – cell-based, CellTiter-Glo luminescence, dry powder, set 2, counter-screen for MITF inhibitor project, dose response (AID 624489); assay type: functional; conditions: A-375;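 also: actives are compounds lowering A375 viability meaning general cytotoxicity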
# [5] = MITF Orthogonal Assay: SK-MEL-5 CTG Assay Measured in Cell-Based System Using Plate Reader - 2084-02_Inhibitor_Dose_DryPowder_Activity_Set7.; assay type: functional
# [6] = MITF: Counter assay: A375 proliferation Measured in Cell-Based System Using Plate Reader - 2084-03_Inhibitor_Dose_DryPowder_Activity_Set8.; assay type: functional; conditions: A-375
# [7] = inhibitors of TRPM1-promoter reporter in SK-MEL-5 – cell-based, luciferase, dry powder, set 8, MITF inhibitor project, dose response (AID 624430); assay type: functional
# Nonstructural protein 1 = Nonstructural protein 1 (Influenza A virus, UniProt Q194T2); assay type: functional, Influenza A virus (A/California/07/2009(H1N1))
# [8] = target: T3, Histone-lysine N-methyltransferase NSD2 (Homo sapiens, UniProt O96028); assay type: biochemical
# T3 sequence (O96028 whole entry): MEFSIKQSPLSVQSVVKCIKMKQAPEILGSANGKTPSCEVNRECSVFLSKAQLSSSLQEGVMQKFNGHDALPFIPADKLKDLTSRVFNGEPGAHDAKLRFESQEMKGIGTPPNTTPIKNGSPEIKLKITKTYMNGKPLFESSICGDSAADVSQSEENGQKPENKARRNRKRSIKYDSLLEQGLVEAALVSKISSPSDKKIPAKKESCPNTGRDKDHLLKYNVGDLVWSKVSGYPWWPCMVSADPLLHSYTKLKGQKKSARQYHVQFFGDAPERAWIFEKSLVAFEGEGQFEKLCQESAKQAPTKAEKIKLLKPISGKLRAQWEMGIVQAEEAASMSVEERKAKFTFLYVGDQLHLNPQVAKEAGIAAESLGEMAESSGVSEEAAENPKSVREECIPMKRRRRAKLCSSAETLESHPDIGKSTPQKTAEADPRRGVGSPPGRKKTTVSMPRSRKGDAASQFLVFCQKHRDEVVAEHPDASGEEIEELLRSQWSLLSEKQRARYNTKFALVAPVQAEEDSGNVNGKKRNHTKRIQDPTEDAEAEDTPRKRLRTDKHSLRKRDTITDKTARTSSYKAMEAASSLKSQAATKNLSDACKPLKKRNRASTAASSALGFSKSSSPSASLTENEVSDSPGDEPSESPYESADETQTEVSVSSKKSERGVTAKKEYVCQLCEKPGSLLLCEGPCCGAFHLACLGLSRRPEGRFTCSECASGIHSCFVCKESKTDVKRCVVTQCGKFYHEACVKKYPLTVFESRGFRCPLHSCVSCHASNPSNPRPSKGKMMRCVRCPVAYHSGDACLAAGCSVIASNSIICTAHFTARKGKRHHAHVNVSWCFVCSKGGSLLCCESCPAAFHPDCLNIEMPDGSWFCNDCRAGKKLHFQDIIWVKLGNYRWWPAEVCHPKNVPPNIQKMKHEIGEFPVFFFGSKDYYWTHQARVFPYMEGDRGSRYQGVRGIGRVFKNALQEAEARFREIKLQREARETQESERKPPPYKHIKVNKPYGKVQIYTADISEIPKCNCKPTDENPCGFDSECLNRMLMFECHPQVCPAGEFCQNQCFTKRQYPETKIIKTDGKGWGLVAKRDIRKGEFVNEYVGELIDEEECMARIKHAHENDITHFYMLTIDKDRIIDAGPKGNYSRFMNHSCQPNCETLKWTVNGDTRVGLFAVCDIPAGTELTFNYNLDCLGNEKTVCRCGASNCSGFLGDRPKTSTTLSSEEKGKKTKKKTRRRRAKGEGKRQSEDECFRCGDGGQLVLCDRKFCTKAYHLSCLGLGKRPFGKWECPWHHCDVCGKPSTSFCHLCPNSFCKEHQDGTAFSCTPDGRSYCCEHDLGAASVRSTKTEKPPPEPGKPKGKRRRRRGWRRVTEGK
# HEK293 = assay: viability loss in HEK293T cells – cell-based, ATP luminescence, cherry-pick samples, cytotoxicity control, dose response (AID 687005); assay type: functional; conditions: Homo sapiens;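 also: cells exposed to compound for 48 hours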
# [9] = HEK293 Cytotoxicity Assay Measured in Cell-Based System Using Plate Reader - 7071-01_Inhibitor_Dose_CherryPick_Activity_Set2.; assay type: functional
# Cysteine protease ATG4B = target: T4, Cysteine protease ATG4B (Homo sapiens, UniProt Q9Y4P1); assay type: functional;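 also: Fluorescence-based dose-response confirmation assay measuring inhibition of ATG4B activity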
# T4 sequence (Q9Y4P1 whole entry): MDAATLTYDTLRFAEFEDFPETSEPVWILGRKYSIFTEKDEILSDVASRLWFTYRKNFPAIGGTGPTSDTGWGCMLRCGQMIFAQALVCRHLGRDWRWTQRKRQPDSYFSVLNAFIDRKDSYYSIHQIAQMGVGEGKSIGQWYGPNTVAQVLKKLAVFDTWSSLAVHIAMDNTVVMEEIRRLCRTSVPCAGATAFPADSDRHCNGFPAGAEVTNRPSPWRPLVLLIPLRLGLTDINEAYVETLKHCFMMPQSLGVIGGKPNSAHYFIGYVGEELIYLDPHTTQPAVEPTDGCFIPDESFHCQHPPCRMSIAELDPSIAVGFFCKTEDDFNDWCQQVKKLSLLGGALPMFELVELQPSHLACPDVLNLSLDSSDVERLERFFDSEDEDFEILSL
# Phospholipase A2 = Phospholipase A2 (Homo sapiens, UniProt P04054); assay type: functional;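 also: confirmatory dose-response counterscreen on phospholipase A2, testing hits that came from an ultra-high-throughput screen for ATG4B inhibitors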
# [10] = target: T5, Carboxy-terminal domain RNA polymerase II polypeptide A small phosphatase 1 (Homo sapiens, UniProt Q9GZU7); assay: CTDSP1 inhibitors, concentration-response, biochemical, absorbance readout, ultra-high-throughput screen actives (AID 540297); assay type: functional
# T5 sequence (Q9GZU7 whole entry): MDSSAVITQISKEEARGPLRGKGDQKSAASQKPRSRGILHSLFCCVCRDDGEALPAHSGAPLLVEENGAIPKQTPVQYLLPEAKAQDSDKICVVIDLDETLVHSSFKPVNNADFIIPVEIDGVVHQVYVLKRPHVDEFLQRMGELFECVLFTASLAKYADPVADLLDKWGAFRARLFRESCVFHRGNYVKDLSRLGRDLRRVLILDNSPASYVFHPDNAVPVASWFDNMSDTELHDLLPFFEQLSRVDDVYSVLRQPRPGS
# Caspase-6 = target: T6, Caspase-6 (Homo sapiens, UniProt P55212); assay: inhibition of CASP6 peptide cleavage – biochemical, VEID-R110 fluorescence, cherry-pick, dose response (AID 720632)
# T6 sequence (P55212 whole entry): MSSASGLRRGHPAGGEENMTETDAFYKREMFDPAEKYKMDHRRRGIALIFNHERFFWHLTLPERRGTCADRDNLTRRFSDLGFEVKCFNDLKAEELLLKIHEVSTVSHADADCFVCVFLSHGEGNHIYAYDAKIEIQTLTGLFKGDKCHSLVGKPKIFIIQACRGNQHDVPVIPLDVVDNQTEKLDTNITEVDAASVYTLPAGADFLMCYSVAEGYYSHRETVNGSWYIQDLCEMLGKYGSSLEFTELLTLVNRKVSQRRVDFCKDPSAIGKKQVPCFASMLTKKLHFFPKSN
# Caspase-7 = target: T7, Caspase-7 (Homo sapiens, UniProt P55210); assay: caspase-7 enzyme inhibition, selectivity check – biochemical, DEVD-R110 fluorescence, cherry-pick, selectivity assay for caspase-6 inhibitor project, dose response (AID 743295); assay type: functional
# T7 sequence (P55210 whole entry): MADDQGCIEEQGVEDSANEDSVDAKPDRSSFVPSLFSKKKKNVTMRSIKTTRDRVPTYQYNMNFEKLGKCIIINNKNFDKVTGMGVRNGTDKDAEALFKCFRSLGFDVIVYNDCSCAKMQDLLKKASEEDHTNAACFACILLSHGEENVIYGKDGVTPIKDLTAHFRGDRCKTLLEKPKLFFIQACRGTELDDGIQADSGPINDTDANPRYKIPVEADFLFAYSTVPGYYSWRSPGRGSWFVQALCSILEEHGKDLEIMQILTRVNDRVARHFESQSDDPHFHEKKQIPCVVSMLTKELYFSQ
# Caspase-8 = Caspase-8 (Homo sapiens, UniProt Q14790); assay: inhibitors of purified CASP8 protease – biochemical, Z-IETD-R110 fluorescence, cherry-picked samples, selectivity assay for caspase-6 inhibitor project, dose response (AID 743294)
# Caspase-3 = target: T8, Caspase-3 (Homo sapiens, UniProt P42574); assay: human caspase-3 protease activity blockade – biochemical, fluorescence, cherry-picked samples, selectivity assay for caspase-6 allosteric inhibitor project, dose response (AID 743291)
# T8 sequence (P42574 whole entry): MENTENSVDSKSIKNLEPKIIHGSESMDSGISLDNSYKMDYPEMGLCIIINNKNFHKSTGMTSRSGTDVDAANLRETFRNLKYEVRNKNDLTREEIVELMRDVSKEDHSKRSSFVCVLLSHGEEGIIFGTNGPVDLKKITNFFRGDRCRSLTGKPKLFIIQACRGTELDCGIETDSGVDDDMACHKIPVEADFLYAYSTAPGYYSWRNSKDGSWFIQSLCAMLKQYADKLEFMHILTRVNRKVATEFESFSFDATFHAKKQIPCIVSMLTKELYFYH
# Sequence of Caspase-8 (Q14790 217-374 limits assumed): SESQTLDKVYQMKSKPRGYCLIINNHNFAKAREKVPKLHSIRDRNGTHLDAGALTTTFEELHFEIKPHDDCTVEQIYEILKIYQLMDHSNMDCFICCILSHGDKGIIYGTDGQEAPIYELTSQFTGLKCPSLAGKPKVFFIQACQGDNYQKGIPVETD
# Sequence of Caspase-8 (Q14790 385-479 limits assumed): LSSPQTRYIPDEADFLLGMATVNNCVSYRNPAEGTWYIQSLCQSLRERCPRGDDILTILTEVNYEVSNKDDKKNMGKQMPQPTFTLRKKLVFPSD
# Sequence of Nonstructural protein 1 (Q194T2 whole entry): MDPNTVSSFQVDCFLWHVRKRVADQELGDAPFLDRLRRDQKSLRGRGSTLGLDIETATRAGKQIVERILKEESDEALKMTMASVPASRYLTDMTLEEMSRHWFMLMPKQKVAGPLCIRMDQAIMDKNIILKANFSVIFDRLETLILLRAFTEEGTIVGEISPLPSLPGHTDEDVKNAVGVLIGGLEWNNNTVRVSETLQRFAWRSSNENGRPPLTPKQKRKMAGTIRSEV
# Sequence of Phospholipase A2 (P04054 whole entry, the tested form may be a part): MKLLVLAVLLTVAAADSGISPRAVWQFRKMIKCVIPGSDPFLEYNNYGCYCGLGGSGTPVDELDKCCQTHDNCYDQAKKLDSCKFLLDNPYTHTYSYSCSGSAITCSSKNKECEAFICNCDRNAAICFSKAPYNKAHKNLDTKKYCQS
structure (smiles),measurement,setting,value
CN1CCN(C2=C(NS(=O)(=O)c3ccccc3)C(=O)c3ccccc3C2=O)CC1,AC50,[1],6.9 µM (active)
same,IC50,[2],39.1 µM (active)
same,AC50,[3],44.6 µM (active)
same,AC50,[4],28.1 µM (active)
CC(C)N1CCN(C2=C(Nc3ccc(Cl)cc3)C(=O)c3ccccc3C2=O)CC1,AC50,[5],10.5 µM (active)
same,AC50,[6],54.7 µM (active)
same,AC50,[7],2 µM (active)
O=C1C(NS(=O)(=O)c2ccc(Br)cc2)=C(N2CCCCC2)C(=O)c2ccccc21,IC50,Nonstructural protein 1,14.5 µM (active)
same,AC50,[3],> 70 µM (inactive)
same,AC50,[8],6.22 µM (active)
same,AC50,[4],> 70 µM (inactive)
C[C@@H]1CN([C@H](C)CO)C(=O)c2cccc(NC(=O)c3ccncc3)c2O[C@H]1CN(C)C(=O)Nc1ccc(C(F)(F)F)cc1,AC50,HEK293,27.7 µM (active)
same,AC50,[9],27.7 µM (active)
O=c1oc(-c2ccccc2)nc2sc3c(c12)CCC3,IC50,Cysteine protease ATG4B,5.65 µM (active)
same,IC50,Phospholipase A2,1.95 µM (active)
same,IC50,[10],9.39 µM (active)
same,AC50,Caspase-6,0.44 µM (active)
same,AC50,Caspase-7,> 70 µM (inactive)
same,AC50,Caspase-8,43.9 µM (active)
same,AC50,Caspase-3,38.7 µM (active)
